Values after ≈ are worked out from the molar mass of the structure shown. Where two headings read alike, the source gives them in different places.
Tests used:
Recombinant BTK(C481S) = biological target: T1, Recombinant BTK(C481S) (Homo sapiens, UniProt Q06187, C481S); test: BTK C481S HTRF kinase assay; type: biochemical; conditions: 30 min pre-incubation, 120 min reaction
T1 construct: purchased SignalChem
Description: [The procedure below names another variant; the source lists this variant under the same test.] Recombinant BTK wild type (BTK WT) was purchased from Thermo fisher.
In brief, recombinant kinases were pre-incubated in the presence or absence of compound at room temperature for 30 minutes. The reaction was initiated by the addition of the ATP and substrate peptide which could be phosphorylated by kinases in the reaction. After 120 minutes incubation, the reaction was stopped by the addition of the detection reagent mix containing EDTA.

[1] = biological target: T2, p-BTK (Phospho-Btk Tyr223) in TMD-8 cells (Homo sapiens, UniProt Q06187); test: TMD8 cell line p-BTK Elisa assay; type: cell-based; conditions: for Maximal Inhibition Level: p-BTK ELISA; for IC50: pervanadate 100 μM, Tyr223 ELISA
T2 construct: endogenous in cells; host or cells: TMD-8
T2 sequence (Q06187 whole entry): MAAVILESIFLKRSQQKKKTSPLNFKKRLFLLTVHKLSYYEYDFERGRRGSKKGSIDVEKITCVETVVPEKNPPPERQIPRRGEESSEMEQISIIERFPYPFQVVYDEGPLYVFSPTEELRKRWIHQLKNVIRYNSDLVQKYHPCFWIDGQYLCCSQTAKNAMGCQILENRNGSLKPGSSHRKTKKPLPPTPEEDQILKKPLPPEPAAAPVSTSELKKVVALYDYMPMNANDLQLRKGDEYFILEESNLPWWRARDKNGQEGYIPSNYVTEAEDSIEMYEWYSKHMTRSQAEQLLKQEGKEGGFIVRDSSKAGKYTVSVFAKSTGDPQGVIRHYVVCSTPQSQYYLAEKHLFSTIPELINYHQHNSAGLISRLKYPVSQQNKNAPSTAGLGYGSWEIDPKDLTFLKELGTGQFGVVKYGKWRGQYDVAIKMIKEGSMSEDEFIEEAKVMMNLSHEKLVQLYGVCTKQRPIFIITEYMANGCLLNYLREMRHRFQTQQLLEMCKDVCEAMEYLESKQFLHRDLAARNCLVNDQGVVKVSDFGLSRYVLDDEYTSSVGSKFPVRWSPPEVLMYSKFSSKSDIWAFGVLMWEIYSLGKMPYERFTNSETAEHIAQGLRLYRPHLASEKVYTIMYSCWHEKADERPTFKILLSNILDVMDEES
Description: The test compounds were added to the cells and cells were incubated for 0.5 hour at 37° C., 5% CO2. Then pervanadate solution was added to the cells to make a final concentration of 100 μM, and cells were incubated for a further 1 hour at 37° C., 5% CO2. […] The plate was read on a Multiscan Spectrum reader set to 450 nm wavelengths.

[2] = In vitro rat hepatocytes clearance assay; type: in vitro ADME
Description: (§1) In Vitro Rat/Human Hepatocytes Clearance Assay
(§2) Rat hepatocytes in male gender and human hepatocytes in mixed gender were obtained from commercial vendors (e.g., BioreclamationIVT) and stored at −150° C. prior to use. 10 mM stock solutions of tested compounds were prepared in DMSO. Thawing medium and supplement incubation medium (serum-free) were placed in a 37° C. water bath for at least 15 minutes prior to use. Stock solutions were diluted to 100 μM by combining 198 μL acetonitrile and 2 μL of 10 mM stock solution.
(§3) Vials of cryopreserved hepatocytes were removed from storage, ensured that vials remain at cryogenic temperatures. The vials were thawed in a 37° C. water bath with gently shaking. Vials were kept in a water bath until all ice crystals had dissolved and were no longer visible. Vials were sprayed with 70% ethanol before being transferred to a biosafety cabinet. And then the contents were poured into the 50 mL thawing medium conical tube. Vials were centrifuged at 100 g for 10 minutes at room temperature. Thawing medium was aspirated and hepatocytes were resuspended with serum-free incubation medium to yield ^˜1.5×10^6 cells/mL.
(§4) Cell viability and density were counted using a Trypan Blue exclusion, and then cells were diluted with serum-free incubation medium to a working cell density of 1×10^6 viable cells/ml. A portion of the hepatocytes at 1×10^6 viable cells/mL was boiled for 10 min prior to adding to the plate as negative control to eliminate the enzymatic activity so that little or no substrate turnover should be observed. The inactivated hepatocytes were used to prepare negative samples, which were used to exclude the misleading factor that resulted from instability of chemical itself.
(§5) Aliquots of 247.5 μL hepatocytes were dispensed into each well of a 96-well non-coated plate. The plate was placed in the incubator on an orbital shaker for approximately 10 minutes. Aliquots of 2.5 μL of the 100 μM test compounds were added into respective wells of the non-coated 96-well plate to start the reaction. This assay was performed in duplicate. The plate was incubated in the incubator on an orbital shaker for the designed time points. 20 μL of contents were transferred and mixed with 6 volumes (120 μL) of cold acetonitrile with internal standard to terminate the reaction at time points of 5, 15, 30, 45, 60, 80 and 100 minutes. Samples were centrifuges for 20 minutes at 4000 g and aliquots of 100 μl of the supernatants were used for LC-MS/MS analysis for measurement of test compounds.
(§6) In vitro hepatocyte clearance was estimated based on determination of elimination half-life (T1/2) of compounds disappearance from their initial concentrations. Peak area ratios of each compound (test or control) to IS was calculated. Ln (% Control) versus Incubation Time (min) curve was plotted, and the slope of a linear fitting line was calculated. Drug elimination rate constant k (min-1), T1/2 (min), and in vitro intrinsic clearance CLint (μL/min/E6) was calculated according to the following equations: k=−slope T1/2=0.693/k CLint=k/Chep • Where Chep (cells×μL-1) is the cell concentration in the incubation system. Procedure for Log D Determination

[3] = In vitro human hepatocytes clearance assay; type: in vitro ADME
Description: as §1, §2, §3, §4, §5, §6

[4] = Protein binding in human plasma by equilibrium dialysis; type: in vitro ADME; conditions: 18 hours at 37° C.; for fraction unbound at 18 h, 5 μM: human, plasma, pH 7.4, human plasma, read-out: hPPB (fu %); for hPPB (fu %): human plasma, 5 μM, fraction unbound
Description: [formula] DF means the dilution factor. Procedure for Protein Binding Measurements in Human Plasma by Using Equilibrium Dialysis
Add 597 μL of blank plasma into each vial of a new plastic plate or separate plastic tube by addition of 3 μL of the working solution of each cassette, vortex at 1,000 rpm for 5 minutes. The final percent volume of organic solvent is 0.5% and the final concentration for test compound is 5 μM. Immediately transfer 50 μL of the spiked plasma suspension to a 96-well plate to act as T=0 control sample. The samples are treated the same as the samples after incubation. Place all remaining spiked plasma in the incubator for the duration of the study.
Place inserts open end up into the wells of the base plate. Add 500 μL of phosphate buffer (pH 7.4) to the buffer chamber, which is indicated by the white ring. Add 300 μL of spiked plasma sample into the sample chamber, which is indicated by the red ring. Cover the unit with gas permeable lid and incubate for 18 hours at 37° C. at 300 rpm with 5% CO2 on an orbital shaker in the CO2 incubator. At the end of incubation, remove lid and pipette 50 μL of post-dialysis samples from both buffer and plasma chambers into separated 96-well plate for analysis, respectively.
At the same time, the remaining spiked plasma sample in the plastic plate or separate plastic tube is incubated for 18 hours at 37° C. with 5% CO2 in the CO2 incubator. At T=18 hours, transfer 50 μL of the original spiked plasma suspension to the 96-well plate for analysis.
Add 50 μL of Human plasma to the buffer samples, and an equal volume of PBS to the collected plasma samples. Vortex the plate at 1,000 rpm for 2 minutes and add 400 μL of acetonitrile containing an appropriate internal standard (IS) to precipitate protein and release compound. Vortex at 1,000 rpm for 10 minutes. Centrifuge for 30 minutes at 4,000 rpm. Transfer 250 μl of the supernatant to new 96-well plates and centrifuge again (4,000 rpm, 30 minutes). Then transfer 100 μL of the supernatant to new 96-well plates for analysis. Add 100 μL of distilled water to each sample and vortex for 5 minutes at 1,000 rpm for analysis by LC-MS/MS. All compounds are tested in singlicate at 5 μM in human plasma.
All calculations are carried out using Microsoft Excel.
Calculate the percentage of unbound, percentage of bound and recovery of test compound as follows: […]

Hu Mic Clint = type: in vitro ADME, human; conditions: for microsomal CLint: human, microsomes
DMSO solubility = type: physicochemical

T1 sequence (Q06187 whole entry C481S): as the sequence (Q06187 whole entry) above, with C481S counted along it

| Compound | IC50 (Recombinant BTK(C481S)) [nM] | Maximal Inhibition Level [1] [%] | IC50 [1] [nM] | Rat Hep Clint [2] [μL/min/10∧6 cells] | Human Hep Clint [3] [μL/min/10∧6 cells] | fraction unbound at 18 h, 5 μM [4] | microsomal CLint (Hu Mic Clint) [µL/min/mg] | solubility (DMSO solubility; kinetic from dmso stock) [µM] | hPPB (fu %) [4] [%] | Hu Mic Clint (Hu Mic Clint) [µL/min/mg] | solubility (DMSO solubility) [µM] |
| --- | --- | --- | --- | --- | --- | --- | --- | --- | --- | --- | --- |
| Nc1nccn2c(C3CCC(CO)OC3)nc(-c3ccc(Oc4cccc(F)c4F)cc3)c12 (single isomer, unassigned) [Compound 6, (5-(8-amino-1-(4-(2,3-difluorophenoxy)phenyl)imidazo[1,5-a]pyrazin-3-yl)tetrahydro-2H-pyran-2-yl)methanol] | 0.42 | 98.8 | 26.2 | 8.2 | 2.1 | 0.075 | 8.8 | 43.9 (≈ 19.9 µg/mL) | – | – | – |
| Nc1ncnn2c(C3CCC(CO)OC3)nc(-c3ccc(Oc4ccccc4)cc3F)c12 (single isomer, unassigned) [Compound 10, Trans-(5-(4-amino-5-(2-fluoro-4-phenoxyphenyl)imidazo[5,1-f][1,2,4]triazin-7-yl)tetrahydro-2H-pyran-2-yl)methanol] | 0.95 | 98.5 | 29 | 17.1 | 1.7 | – | – | – | 8.1 | 7.0 | 20.5 (≈ 8.93 µg/mL) |
| Nc1nccn2c(C3CCC(CO)OC3)nc(-c3ccc(Oc4ccccc4)c(F)c3F)c12 (single isomer, unassigned) [Compound 5, (5-(8-amino-1-(2,3-difluoro-4-phenoxyphenyl)imidazo[1,5-a]pyrazin-3-yl)tetrahydro-2H-pyran-2-yl)methanol] | 5.42 | 95.8 | 48.7 | 9.0 | 9.0 | – | – | – | 9.0 | 13.0 | 61.9 (≈ 28 µg/mL) |
| Nc1nccn2c(C3CCC(CO)OC3)nc(-c3ccc(Oc4ccccc4)cc3F)c12 (single isomer, unassigned) [Compound 2, Trans-(5-(8-amino-1-(2-fluoro-4-phenoxyphenyl)imidazo[1,5-a]pyrazin-3-yl)tetrahydro-2H-pyran-2-yl)methanol] | 0.66 | 98.4 | 29.1 | 6.1 | 4.6 | 0.106 | 12.7 | – | – | – | 15.1 (≈ 6.56 µg/mL) |

From patent publication US12624039B2, “BTK inhibitors” (DIZAL (JIANGSU) PHARMACEUTICAL CO., LTD., priority 2020, dated 2026)
